Measurements published in patent US20250228858A1, “ANTI-CANCER COMBINATION THERAPY” (Boehringer Ingelheim International GmbH, priority 2023, published 2025).
Where “and” joins values, the source holds several entries; their conditions need not be identical. Identical values can stand only once.

Key:
Type in all cases: in vivo, NMRI-Foxn1^nu mice
[1] = test system: HER2 Exon20^YVMA-mutant human non-small cell lung cancer (NSCLC) cell line PC-9_YVMA-5; experiment: PC-9_YVMA-5 subcutaneous xenograft, zongertinib with T-DM1; details: alone or combined; for effect on tumor growth (median tumor volumes over time): T-DM1 5 mg/kg once weekly (q7d), zongertinib 5 mg/kg/day; for TGI: day 19; for TGI / tumors regressed completely / Regressions >30%: zongertinib 5 mg/kg bid, T-DM1 5 mg/kg q7d; for tumors regressed completely: number of tumors, 8 per group; for Regressions >30%: tumors regressed/total (Table 6, FIG. 6 waterfall day 24)
Experimental: The study is performed in human non-small cell lung cancer (NSCLC) cell line PC-9_YVMA-5 (PC-9 YVMA in short) grown as subcutaneous xenografts in NMRI-Foxn1^nu mice. Day 1 was the first day, day 21 the last day of treatment and day 24 the final day of analysis.
PC-9 is a non-small cell lung cancer cell line that can be obtained from the European Collection of Authenticated Cell Cultures (ECACC #90071810) and expresses an EGFR DEL19 mutation. To generate the PC-9_YVMA-5 clone driven by HER2 YVMA, parental PC-9 cells are ectopically transduced to express the HER2 YVMA isoform and the EGFR alleles (mutant and wild type) are deleted using CRISPR technology. Cells are cultured in T175 tissue culture flasks at 37° C. and 5% CO2. The medium used is RPMI 1640 supplemented with 10% FCS (Thermo Scientific #SH 30071.03), 0.5 μg/ml Puromycin (Gibco #A1113803) and 0.6 mg/ml Geneticin (Gibco #10131035). Cultures are split twice weekly with a ratio of 1:5-1:6.
(§1) To establish subcutaneous tumors, PC-9_YVMA-5 cells are harvested by centrifugation, washed and resuspended in PBS+5% FCS at 5×10^7 cells/ml. 100 μl cell suspension containing 5×10^6 cells is injected subcutaneously into the right flank of the mice (1 site per mouse). Mice are randomly distributed between the treatment and the vehicle control group (12 days after cell injection) when tumors are well established and have reached volumes of 90 to 149 mm^3.
Mice in the control group are treated with vehicle, i.e.: • (i) 0.5% Natrosol, administered twice daily for the duration of the treatment intragastrally by gavage needle with a volume of 10 ml/kg body weight; and • (ii) saline (0.9%), administered once weekly intravenously into the tail vein with a volume of 5 ml/kg.
Tumor volumes and side effects are monitored as described in Example 1 (see paragraph 1.1.6), except that control animals are sacrificed when the median tumor volume of the group reaches a size of approximately 370 mm^3.
The statistical evaluation of the tumor volume and the body weight is conducted on day 19 (last day of the controls). Apart from this, statistical analysis was performed as described in Example 1 (see paragraph 1.1.7), with no evaluation of tumor growth after stop of treatment.

[2] = test system: HER2-overexpressing human breast cancer cell line SUM190PT; experiment: SUM190PT subcutaneous xenograft, zongertinib with T-DM1; details: day 21, alone or combined; for stable disease: number of tumors out of 8, zongertinib 20 mg/kg qdx21, T-DM1 3 mg/kg q21dx1; for Regressions >30%: tumors regressed/total (partial response); for Regressions >30% / TGI: zongertinib 20 mg/kg qdx21 p.o., T-DM1 3 mg/kg q21dx1 i.v.
Experimental: The study is performed in human breast cancer cell line SUM190PT grown as subcutaneous xenografts in NMRI-Foxn1^nu mice. Day 1 was the first day, day 21 the last day of treatment and final day of analysis.
SUM190PT is a HER2-overexpressing human breast cancer cell line that can be obtained from Asterand Bioscience (BioIVT). Cells are cultured in T75, T175 and 5-Layer tissue culture flasks at 37° C. and 5% CO2. The medium used is ACL-4 (Thermo Fisher Scientific #041-95574M Custom Batch) supplemented with 0.5% bovine serum albumin (JHR 85-041-025), 0.02 mg/ml insulin (Sigma I5500), 0.01 mg/ml transferrin (Sigma T-2252), 25 nM sodium selenite (Sigma S9133), 50 nM Hydrocortisone (Sigma H-4001), 1 ng/ml Epidermal Growth Factor (unfiltered, Sigma E4127), 0.01 mM ethanolamine (Sigma E-0135), 0.01 mM phosphorylethanolamine (Medchem HY-N5034), 100 pM triiodothyronine (Sigma T5516), 0.5 mM sodium pyruvate (Sigma S8636) and 2 mM L-glutamine (Gibco 11539876). Cultures are split once weekly with a ratio of 1:2.
as §1, with “SUM190PT” for “PC-9_YVMA-5”, “PBS+2.5% FCS+50% Matrigel (Corning #2165001)” for “PBS+5% FCS”, “(13” for “(12”, “100” for “90”, “180” for “149”
Tumor volumes and side effects are monitored as described in Example 1 (see paragraph 1.1.6), except that control animals were analysed when the median tumor volume of the group reaches a size of approximately 700 mm^3.
The statistical evaluation of the tumor volume and the body weight is conducted on day 21 (last day of the study). Apart from this, statistical analysis was performed as described in Example 1 (see paragraph 1.1.7), with no evaluation of tumor growth after stop of treatment.

[3] = test system: HER2-overexpressing human breast cancer cell line BT-474; experiment: BT-474 orthotopic xenograft, zongertinib with T-DM1; details: for stable disease / Regressions >30% / TGI: day 42; for stable disease: number of tumors; for stable disease / mice that lost some weight and had to be euthanized: zongertinib 10 mg/kg qdx42, T-DM1 6 mg/kg q21dx2, monotherapies; for Regressions >30%: tumors regressed/total (partial response); for Regressions >30% / TGI: zongertinib 10 mg/kg qdx42 p.o., T-DM1 6 mg/kg q21dx2 i.v., alone or combined
Experimental: The study is performed in human breast cancer cell line BT-474 grown as orthotopic xenografts in NMRI-Foxn1^nu mice. Day 1 was the first day, day 42 the last day of treatment and final day of analysis.
BT-474 is obtained and cultured as described in Example 10 (see paragraph 10.1.2).
Tumors are established and randomized as described in Example 10 (see paragraph 10.14), except that mice are randomly distributed between the treatment and the vehicle control group (22 days after cell injection) when tumors are well established and have reached volumes of 84 to 310 mm^3.
Tumor volumes and side effects are monitored as described in Example 1 (see paragraph 1.1.6), except that control animals are sacrificed when the median tumor volume of the group reaches a size of approximately 710 mm^3.
The statistical evaluation of the tumor volume and the body weight is conducted on day 42 (last day of the study). Apart from this, statistical analysis was performed as described in Example 1 (see paragraph 1.1.7), with no evaluation of tumor growth after stop of treatment.

| Compound | effect on tumor growth (median tumor volumes over time) [1] | TGI [1] | tumors regressed completely [1] | Regressions >30% [1] | Regressions >30% ([1]; listed as zongertinib) | stable disease [2] | Regressions >30% [2] | TGI [2] | stable disease [3] | Regressions >30% [3] | Regressions >30% ([3]; listed as zongertinib) | TGI [3] | mice that lost some weight and had to be euthanized [3] |
| --- | --- | --- | --- | --- | --- | --- | --- | --- | --- | --- | --- | --- | --- |
| C=CC(=O)NC1CCN(c2ncc3ncnc(Nc4ccc(Oc5ccc6c(c5)ncn6C)c(C)c4)c3n2)CC1 [Zongertinib, N-{1-[8-({3-methyl-4-[(1-methyl-1H-1,3-benzodiazol-5-yl)oxy]phenyl}amino)-[1,3]diazino [5,4-d]pyrimidin-2-yl]piperidin-4-yl}prop-2-enamide] | abolished tumor growth | 110% | none | 4/8 | 4 | no stable disease | 0/8 | 64% | no stable disease | 0/7 | no partial responses | 86% | 1 out of 8 |
| trastuzumab emtansine [T-DM1, reference compound] | abolished tumor growth | 112% | none | 4 and 4/8 | – | 3 | 0/8 | 90% | 3 | 1 and 1/5 | – | 85% | 2 out of 8 |
